Where “and” joins values, the source holds several entries; their conditions need not be identical. Equal values may be shown once. Read-outs that look alike come from different tables or passages of the source.

In test [1] the target is T1, WDR5 (Homo sapiens, UniProt P61964).
T1 construct: the experimental cell containing full-length WDR5 (20 μM); His; made in house; host or cells: Escherichia coli Rosetta II (DE3) pLysS
In words: Isothermal titration calorimetry (ITC) binding to WDR5. The method, then: Isothermal titration calorimetry (ITC). Purified full-length WDR5 and Win6mer peptide were extensively dialyzed in separate Micro Float-A-Lyzer® Dialysis Devices, MWCO 500-1000 Da (Spectrum Labs) against sample buffer consisting of 20 mM Tris pH 7.5, 300 mM NaCl, 1 mM TCEP, 1 μM ZnCl2 buffer. ITC experiments were carried out at 20° C. using a VP-ITC micro-calorimeter (MicroCal). After an initial delay of 120 sec, Win6mer (200 μM) was titrated into the experimental cell containing full-length WDR5 (20 μM) over the course of 45 injections, 5 μL each. Reference power was set to 10 μCal/sec and stirring speed was set to 295 rpm. Data were integrated using NITPIC. SEDPHAT was used to fit the integrated data to a single-site heterogeneous association model, using simulated annealing and Maxquardt-Levenberg algorithms. Automatic confidence interval search with projection method was applied to estimate the error of the determined thermodynamic parameters. Confidence interval was set to 2σ (95%). ITC figure was generated using GUSSI.

Test [2] relates to isolated SET1 family SET domains. Nature of the test: Isolated SET domain methyltransferase activity with Win6mer (radiometric, fluorography/LSC). Type of test: biochemical, human. The conditions noted are these: 100 μM Win6mer; isolated SET domains without WRAD. The protocol: Methyltransferase Assays. MLL core complex Win motif mutants. […] Reactions were quenched with SDS-loading buffer and separated by SDS-PAGE using a 4-12% Bis-Tris gel (Life Technologies) run at 200V for 30 minutes. The gels were enhanced at room temperature for 30 minutes (Enlightning, Perkin Elmer Inc.) then dried for 2.5 hours at 72° C. under constant vacuum. The dried gels were exposed to film (Kodak Biomax MS Film) at −80° C. for 4-24 hours prior to developing. Liquid scintillation counting (LSC) was performed by excising gel bands corresponding to histone H3 peptides, which were dissolved in 750 μL of Solvable (Perkin Elmer Inc.), incubated at room temperature for 30 minutes followed by incubation at 50° C. for 3 hours. The solubilized volume of each sample was transferred to liquid scintillation vials containing 10 mL of Ultima Gold XL liquid scintillation cocktail (Perkin Elmer Inc.). Samples were dark adapted for 1 hour then counted for 5 minutes each with a two-sigma error cut-off using an all-purpose scintillation counter (Beckman Coulter).
MLL SET domains treated with Win6mer. Isolated SET1 family SET domains (5 μM) were incubated with 1 μCi of ^3H-AdoMet (Perkin Elmer Inc.) and 100 μM of H3K4me0, H3K4me1, or H3K4me2 peptides, with and without 100 μM Win6mer, in Assay Buffer at 15° C. for 8 hours. Reactions were quenched with SDS-loading buffer. […]

Test [3] addresses T2, SET1 family core complex assembly (WDR5, RbBP5, ASH2L) (Homo sapiens, UniProt P61964).
T2 construct: host or cells: MCF-7 cell extract
In words: GST pull-down of endogenous WRAD components from MCF-7 cell extracts with or without Win6mer. Type of test: binding. The following applies: 10 μM Win6mer. The protocol: For pull-down assays using cell extracts, a 3 μM concentration of each GST-tagged SET domain was incubated with 100 μg of MCF-7 cell extract for 16 hours at 4° C. Following the initial incubation, 20 μL of a 50:50 slurry of glutathione agarose beads was added to each sample and incubated for an additional 2 hours at 4° C. Samples were washed 3× in radioimmunoprecipitation (RIPA) buffer. Samples were eluted from beads by boiling the samples at 95° C. in SDS-loading buffer for 10 minutes. Samples of the supernatant were separated on a 4-12% Bis-Tris gel and transferred to a PVDF membrane at 30V for 1 hour. PVDF membranes were blocked for 1 hour with a 5% non-fat milk solution then incubated with primary antibody (1:2,000) for 1 hour at room temperature. Blots were washed 4 times then incubated with an HRP-conjugated anti-rabbit secondary antibody (1:5,000) for 1 hour at room temperature. Blots were washed an additional 4 times, then visualized by chemiluminesence (Clarity Western, BioRad) on a BioRad ChemiDoc MP Imager using the chemiluminesence setting.

A further test addresses T3, SETd1B core complex (Homo sapiens, UniProt P61964).
T3 construct: Full-length WRAD constructs in pHis parallel expression vectors; His; made in house; host or cells: Escherichia coli Rosetta II (DE3) pLysS
In words: Core complex methyltransferase inhibition, scintillation proximity assay. It counts as biochemical. The following applies: for IC50: Win6mer up to 50 μM, read-out: Inhibition Efficiency, IC50. The method, then:
(§1) MLL Core Complex inhibition by Win6mer. Assay conditions: MLL core complexes were reconstituted by mixing purified GST-SET domains (MLL1, MLL4, MLL2, MLL3, SETd1A, and SETd1B) with WDR5, RbBP5, ASH2L, and DPY-30 in stoichiometric amounts (GST-SET:W:R:A:D 1:1:1:1:2). The activity of each core complex was assessed under the following conditions: 2 μM SET1 core complex, 80 μM biotinylated H3 substrate peptide, 0.68 μM ^3H-AdoMet (0.5 μCi) at 15° C. in Assay Buffer (50 mM Tris pH 8.5, 200 mM NaCl, 5 mM MgCl2, 5% glycerol), in a total volume of 10 μL. Core complex- or H3 peptide-only reactions incubated with ^3H-AdoMet served as background controls. Reactions were quenched with 167 mM EDTA (ethylenediaminetetraacetic acid). Each sample was diluted in 50 μL Buffer 2 containing 0.2 mg/mL BSA and then transferred to 96-well streptavidin-coated FlashPlate® Microplates (Perkin Elmer). Samples were incubated overnight at 4° C. to allow binding of the biotinylated H3 peptide to the streptavidin-coated surface prior to scintillation counting in Hidex Sense microplate reader (LabLogic). Determination of linear ranges: The activity of MLL core complexes towards H3K4me0, H3K4me1, or H3K4me2 substrate peptides was assayed as described above. Reactions were quenched at varying time points with 167 mM EDTA and prepared for scintillation counting on Streptavidin FlashPlates®. A plot of counts per minute (CPM) vs. time was constructed from which the linear range was determined. Single time points within the linear range were selected for each SET1 core complex for performing inhibition studies: H3K4me0: MLL1, MLL2*, SETd1A, and SETd1B*—5 min, MLL4—3 min, MLL3—15 min. H3K4me1: MLL1—5 min, MLL4—3 min, SETd1A—15 min, SETd1B—45 min. H3K4me2: SETd1A—2 hr, SETd1B—1 hr. (*1 μM of MLL2 and SETd1B core complex were used for H3K4me0 reactions). Dose response curves: Inhibition studies were performed in order to determine the efficiency of Win6mer as an MLL core complex inhibitor. The activity of each MLL core complex towards H3 substrate peptides was assessed (as described above) with increasing doses of Win6mer (0, 0.005, 0.05, 0.10, 0.5, 1.0, 2.5, 5.0, 10.0, and 50 μM). Reactions were quenched with 167 mM EDTA at the determined time points and prepared for scintillation counting on streptavidin-coated FlashPlastes® as described above.
(§2) The activity of SET1 core complexes at each Win6mer concentration point was normalized to the activity of the uninhibited core complex to obtain the relative methyltransferase activity. Inhibition data were plotted as relative methyltransferase activity vs. log [Win6mer] (nM). The Win6mer IC50 values for MLL1 and SETd1A core complexes were determined by fitting the data to a dose response with variable slope equation in Sigma Plot.

Another test concerns the target T4, MLL2 core complex (Homo sapiens, UniProt P61964).
T4 construct: Full-length WRAD constructs in pHis parallel expression vectors; His; made in house; host or cells: Escherichia coli Rosetta II (DE3) pLysS
Described as above. Type of test: biochemical. The following applies: H3K4me0 substrate. The method, then: as §1, §2

Another test addresses T5, MLL1 core complex (Homo sapiens, UniProt P61964).
T5 construct: Full-length WRAD constructs in pHis parallel expression vectors; His; made in house; host or cells: Escherichia coli Rosetta II (DE3) pLysS
Described as above. It counts as biochemical. The method, then: as §1, §2

In the next test the target is T6, MLL4 core complex (Homo sapiens, UniProt P61964).
T6 construct: Full-length WRAD constructs in pHis parallel expression vectors; His; made in house; host or cells: Escherichia coli Rosetta II (DE3) pLysS
Described as above. It counts as biochemical. The conditions noted are these: for IC50: 2 μM core complex, Win6mer up to 50 μM, read-out: Inhibition Efficiency, IC50. The protocol:
as §1, §2

A further test concerns the target T7, MLL3 core complex (Homo sapiens, UniProt P61964).
T7 construct: Full-length WRAD constructs in pHis parallel expression vectors; His; made in house; host or cells: Escherichia coli Rosetta II (DE3) pLysS
The test is described as above. The conditions noted are these: H3K4me0 substrate. It counts as biochemical. The method, then:
as §1, §2

Test [4] addresses T1, WDR5. The following applies: ITC; reported values of other inhibitors; read-out: Dissociation Constant Kd towards WDR5; cited from earlier work.

In the case of `CC(=O)N[C@@H](C)C(=O)N[C@@H](CCCNC(=N)N)C(=O)N[C@H](C(=O)N[C@@H](CCC(=O)O)C(=O)N[C@H](C(=O)N[C@@H](Cc1ccc(O)cc1)C(N)=O)C(C)C)[C@@H](C)O` [Win6mer, Ac-ARTEVY-NH2], at WDR5 [1], the “increase in binding affinity over the best naturally occurring Win motif sequence” value is on record as about 18 fold. For the same compound, the dissociation constant (Kd) at WDR5 [1] (read-out: Dissociation Constant Kd towards WDR5) is ~3 nM and 2.9 nM. Besides, the “effect on intrinsic monomethyltransferase activity of SET1 family members” value in test [2] is given as “did not affect”. Moreover, in test [3], the “RbBP5/ASH2L binding of MLL2, MLL3, MLL4 and SETd1B” value is listed as “only a modest reduction”. In addition, in [3], the “RbBP5/ASH2L interaction with MLL1 and SETd1A complexes” value is reported as “near total loss”. Moreover, the “ability of all six SET1 family members to interact with endogenous WDR5” value in test [3] is given as “greatly reduced”. The “methyltransferase activity of core complex on treatment” value on SETd1B core complex (H3K4me0 substrate), on MLL2 core complex, on MLL4 core complex (H3K4me0 substrate) and at MLL3 core complex was “uninhibited” each time. The IC50 is over 50000 nM on SETd1B core complex (H3K4me0 substrate, 1 μM core complex); over 50000 nM at SETd1B core complex (H3K4me1 substrate, 2 μM core complex); over 50000 nM on SETd1B core complex (H3K4me2 substrate, 2 μM core complex); over 50000 nM on MLL2 core complex (1 μM core complex, Win6mer up to 50 μM, read-out: Inhibition Efficiency, IC50); 2200 nM at MLL1 core complex (1.8 μM of enzyme complex assayed, read-out: IC50); 2200 nM at MLL1 core complex (2 μM of enzyme complex assayed, read-out: average IC50). The IC50 at MLL1 core complex (H3K4me1 substrate, 2 μM core complex, read-out: Inhibition Efficiency, IC50 [95% confidence interval]) was 2200 nM; on MLL4 core complex (H3K4me0 substrate) it was over 50000 nM; at MLL4 core complex (H3K4me1 substrate) it was over 50000 nM; on MLL3 core complex (2 μM core complex, Win6mer up to 50 μM, read-out: Inhibition Efficiency, IC50) it was over 50000 nM.

Turning to `COC(=O)c1ccc(N2CCN(C)CC2)c(NC(=O)c2cccc(OC)c2)c1` [WDR5-0103], at WDR5 [4], the equilibrium dissociation constant (Kd) was 450 nM.

(Values after US10392423B2, “Peptide-based inhibitors of MLL/SET1 family core complexes” (The Research Foundation for the State University of New York, priority 2017, dated 2019).)
